Experimental data published in PubChem BioAssay (NCI).
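In this assay, cells in 96-well plates receive the compound at five concentrations for 48 hours. Endpoints are linearly interpolated between the surrounding concentrations. Here, GI50 denotes the concentration required for 50% inhibition of growth. TGI is the concentration that stops growth completely.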

Experiments:
Assay in all cases: NCI tumour cell line growth inhibition, 48 h
RXF 393 renal = tested on: RXF 393 renal
A498 renal = tested on: A498 renal
UACC-62 melanoma = tested on: UACC-62 melanoma
SW-620 colon = tested on: SW-620 colon
MDA-N = tested on: MDA-N
HOP-62 NSCLC = tested on: HOP-62 NSCLC
HCT-15 colon = tested on: HCT-15 colon
SNB-19 CNS = tested on: SNB-19 CNS
HS 578T breast = tested on: HS 578T breast

| Compound | TGI (RXF 393 renal) | TGI (A498 renal) | TGI (UACC-62 melanoma) | TGI (SW-620 colon) | TGI (MDA-N) | TGI (HOP-62 NSCLC) | TGI (HCT-15 colon) | TGI (SNB-19 CNS) | TGI (HS 578T breast) | GI50 (A498 renal) | GI50 (RXF 393 renal) | GI50 (UACC-62 melanoma) | GI50 (SW-620 colon) | GI50 (HCT-15 colon) | GI50 (SNB-19 CNS) | GI50 (HS 578T breast) |
| --- | --- | --- | --- | --- | --- | --- | --- | --- | --- | --- | --- | --- | --- | --- | --- | --- |
| NC(=S)N=Nc1c(O)cc(Nc2ccc(Cl)cc2Cl)c2ccccc12 | 51.4 µM | > 100 µM | 29.4 µM | > 100 µM | > 100 µM | 22.4 µM | > 100 µM | 88.6 µM | – | – | – | – | – | – | – | – |
| C/C(=N\Nc1nc2ccccc2s1)c1cccnn1 | 84.5 µM | – | 20 µM | > 100 µM | > 100 µM | 14.5 µM | > 100 µM | > 100 µM | 44.1 µM | – | – | – | – | – | – | – |
| O=C(NCCCNCCCCNCCCNC(=O)C(F)(F)F)C(F)(F)F | > 100 µM | > 100 µM | > 100 µM | > 100 µM | > 100 µM | > 100 µM | > 100 µM | – | > 100 µM | – | – | – | – | – | – | – |
| CC1=CCC[C@H]2[C@](C)(CC3=CC(=O)C4SCCSC4C3=O)[C@@H](C)CC[C@]12C (some centres undefined) | 44.8 µM | 31.2 µM | 39.9 µM | 65.6 µM | 25.9 µM | 31.1 µM | 67.1 µM | 37.1 µM | – | – | – | – | – | – | – | – |
| O=C(CN=C(CN(c1ccccc1)c1ccccc1)Oc1c(Cl)cc(Cl)cc1Cl)n1cnc2ccccc21 | 25.6 µM | – | > 100 µM | > 100 µM | > 100 µM | > 100 µM | > 100 µM | > 100 µM | > 100 µM | – | – | – | – | – | – | – |
| O=c1oc2ccccc2c2nc3ccccc3cc12 | 91.3 µM | 96.4 µM | > 100 µM | > 100 µM | > 100 µM | – | > 100 µM | 70.3 µM | 66.7 µM | – | – | – | – | – | – | – |
| C[C@@H]1C(=O)CC2(O)[C@@]13C[C@@H](OC(=O)[C@@H]3O)[C@@H](C)[C@@]21COC1=O (some centres undefined) | > 100 µM | – | > 100 µM | > 100 µM | > 100 µM | > 100 µM | > 100 µM | > 100 µM | > 100 µM | – | – | – | – | – | – | – |
| CCOC(=O)Cc1nn2c(=O)cc(C)nc2s1 | > 100 µM | – | > 100 µM | > 100 µM | > 100 µM | > 100 µM | > 100 µM | > 100 µM | > 100 µM | – | – | – | – | – | – | – |
| Cc1ccsc1C(=S)Nc1ccc(Cl)c(C(=O)OC(C(C)C)C(C)C)c1 | – | > 100 µM | > 100 µM | 98.8 µM | > 100 µM | – | > 100 µM | 91.7 µM | > 100 µM | – | – | – | – | – | – | – |
| CC12CCC(C/C1=N\NC(N)=O)C2(C)C (centres undefined) | – | – | > 100 µM | > 100 µM | > 100 µM | > 100 µM | > 100 µM | > 100 µM | > 100 µM | – | – | – | – | – | – | – |
| COC(=O)c1cc(C(=O)OC)cc(-c2ccc3c(c2)-c2nc4c(c(-c5ccc(OC)cc5)c2CC3)CCc2ccc(-c3cc(C(=O)OC)cc(C(=O)OC)c3)cc2-4)c1 | – | > 100 µM | > 100 µM | – | > 100 µM | > 100 µM | > 100 µM | > 100 µM | – | – | – | – | – | – | – | – |
| COC(=O)C(CCCCNC(=O)CNC(=O)OCc1ccccc1)NC(=O)C(CCCCNC(=O)CNC(=O)OCc1ccccc1)NC(=O)OCc1ccccc1 (centres undefined) | – | > 100 µM | > 100 µM | > 100 µM | > 100 µM | > 100 µM | > 100 µM | > 100 µM | – | – | – | – | – | – | – | – |
| Brc1ccc2c(c1)-c1nc3c(cc1CC2)CCc1ccc(Br)cc1-3 | > 100 µM | > 100 µM | – | > 100 µM | > 100 µM | > 100 µM | > 100 µM | > 100 µM | – | – | – | – | – | – | – | – |
| CC1=C(C(=O)NNC(=O)CC#N)CC(C(=O)NNC(=O)CC#N)=C(C)N1 | > 100 µM | > 100 µM | – | > 100 µM | > 100 µM | > 100 µM | > 100 µM | > 100 µM | – | – | – | – | – | – | – | – |
| COC(=O)c1sc2ncc3c(c2c1N)CC(C)CC3 (centres undefined) | > 100 µM | > 100 µM | > 100 µM | > 100 µM | > 100 µM | > 100 µM | > 100 µM | > 100 µM | – | – | – | – | – | – | – | – |
| COP(=O)(CC(=O)C1OC(OCc2ccccc2)C(OCc2ccccc2)C(OCc2ccccc2)C1OCc1ccccc1)OC (centres undefined) | 19.4 µM | – | 17.8 µM | > 100 µM | 20.3 µM | > 100 µM | > 100 µM | > 100 µM | > 100 µM | – | – | – | – | – | – | – |
| COc1cc(OC)c(C2c3cc4c(cc3OC(N3CCOCC3)C2C)OCO4)c(OC)c1 (centres undefined) | – | – | > 100 µM | > 100 µM | > 100 µM | > 100 µM | > 100 µM | > 100 µM | 20.5 µM | – | – | – | – | – | – | – |
| CCCC[C@@H]1CCN2C[C@@H](O)[C@@H](O)[C@H]2[C@@H]1O | – | > 100 µM | > 100 µM | > 100 µM | – | – | > 100 µM | > 100 µM | > 100 µM | – | – | – | – | – | – | – |
| CC1(C)OC(CCO)CN1C(=O)OCc1ccccc1 (centres undefined) | > 100 µM | > 100 µM | > 100 µM | > 100 µM | > 100 µM | – | > 100 µM | > 100 µM | – | – | – | – | – | – | – | – |
| Cc1ccc2c(c1)C(=O)/C(=C\c1ccc(Cl)cc1)CCS2(=O)=O | – | 26.4 µM | 10.2 µM | 12.1 µM | > 36.5 µM | > 47.2 µM | 5.01 µM | 6.82 µM | > 31.5 µM | – | – | – | – | – | – | – |
| NNC(=O)c1cccc2c1Oc1ccccc1S2 | > 100 µM | > 100 µM | > 100 µM | > 100 µM | – | > 100 µM | > 100 µM | > 100 µM | > 100 µM | – | – | – | – | – | – | – |
| COc1cc2c(cc1OCCCOc1cc3c(cc1OC)C(=O)N1CCC[C@H]1CN3)N=C[C@@H]1CCCN1C2=O | 2.55 µM | 0.668 µM | – | > 32.4 µM | – | 0.892 µM | > 24.5 µM | > 100 µM | – | 0.262 µM | – | – | – | – | – | – |
| COc1ccc(CCCCl)c(C2=NCCc3ccccc32)c1 | > 100 µM | > 100 µM | > 100 µM | > 100 µM | – | > 100 µM | > 100 µM | > 100 µM | > 100 µM | – | – | – | – | – | – | – |
| COc1cc(/C=C/c2cc(=O)cc(/C=C/c3ccc(O)c(OC)c3)o2)ccc1O | > 55.2 µM | > 100 µM | > 100 µM | > 100 µM | – | > 63.8 µM | > 100 µM | > 100 µM | > 100 µM | – | – | – | – | – | – | – |
| Nc1nc(Nc2ccc(OCc3cccc(F)c3)cc2)c2c(n1)[nH]c1ccc(O)cc12 | 3.55 µM | 33.1 µM | 4.09 µM | 6.26 µM | – | – | 16.2 µM | 21.7 µM | 6.29 µM | 15.7 µM | 1.78 µM | 1.95 µM | 2.54 µM | 3.61 µM | 4.4 µM | 2.41 µM |
